For assay [1], the target named is Geranylgeranyl transferase type I (Bos taurus, UniProt P29702+Q5EAD5). The experiment in a line: Inhibition of Bovine geranylgeranyltransferase (GGT). The assay is classed as protein-complex assay.
Assay [2] concerns the target Protein farnesyltransferase (Bos taurus, UniProt P29702+P49355). The experiment in a line: Inhibition of Bovine farnesyltransferase (FTase). In kind it is protein-complex assay.
The target of assay [3] is T1, Protein farnesyltransferase (Mus musculus, UniProt Q61239+Q8K2I1). The experiment in a line: Inhibition of Ras farnesylation in H-Ras transformed NIH3T3 cells at 100 nM. The assay is classed as functional, cell-based.
Assay [4] has as its target T1, Protein farnesyltransferase. Nature of the assay: Inhibition of Ras farnesylation in H-Ras transformed NIH3T3 cells. The assay is classed as functional, cell-based.

As a reminder, the IC50 is the concentration that gives 50% inhibition. Low values mean higher potency, high ones lower potency. Regarding `N#Cc1ccc(Cn2cncc2CNCc2cc(=O)c(C#N)cn2-c2cccc(Cl)c2)cc1`, the IC50 in assay [1] was greater than 10000 nM; in assay [2], 7.9 nM.
Take `Cn1cncc1C(NC(=O)c1cn(C)c(=O)cc1-c1cccc(Cl)c1)c1ccc(C#N)cc1` (stereo unspecified): in assay [2], the IC50 was determined as 685 nM.
The Inhibition is the share of the control response that was lost under treatment. `Cn1cncc1C(O)(c1ccc(Cl)cc1)c1ccc2c(=O)c(C#N)cn(-c3cccc(Cl)c3)c2c1` (stereo unspecified) had an Inhibition in assay [3] of 51%. For the same molecule, the IC50 in assay [1] came to 16000 nM; in assay [2], 12 nM.
For `Cn1c(CNCc2cncn2Cc2ccc(C#N)cc2)c(-c2cccc(Cl)c2)cc(C#N)c1=O`, in that order: 21%, greater than 10000 nM and 17 nM.
Consider `Cn1cncc1C(OCc1cc(=O)c(C#N)cn1-c1cccc(Cl)c1)c1ccc(C#N)cc1` (stereo unspecified), for which, in assay [3] (nih3t3), the Inhibition came to 4%. Moreover, the figures for the IC50 in assay [1] and in assay [2] were greater than 10000 nM and 12 nM, respectively.
One may read the EC50 as the concentration giving half of the maximal effect. For the molecule `NC(=O)N1CCC(CC(=O)N2CCC([C@H]3c4ncc(Br)cc4CCc4cc(Cl)cc(Br)c43)CC2)CC1` [LONAFARNIB], the EC50 in assay [4] was determined as 100 nM. For the same molecule, the IC50 in assay [1] was greater than 10000 nM; in assay [2] it was 8.3 nM.
`Cn1cncc1[C@@](N)(c1ccc(Cl)cc1)c1ccc2c(c1)c(-c1cccc(Cl)c1)cc(=O)n2C` [TIPIFARNIB]: the EC50 in assay [4] (nih3t3) came out at 1.6 nM.
